In PubChem BioAssay AID1963860 (Molecular Pharmacology Branch, DTP, NCI, 2024):

System: CN0375-F725-PDC KRAS spheroid viability
Assay: Anticancer human tumor CN0375-F725-PDC patient-derived colon carcinoma cell line growth inhibition [KRAS2]
Settings: spheroids with HUVEC and MSC; for viability, T/C: stronger effect = lower value
Summary of the method: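 Combination screen of spheroid viability in tumor-cell co-cultures with endothelial (HUVEC) and mesenchymal stem cell stroma. Each agent was tested in half-log dilutions, topping at clinical Cmax or at 10 microM without a known Cmax.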

[1] = curve of first compound, second compound 0.1 µM
[2] = curve of first compound, second compound 0.316 µM
[3] = curve of first compound, second compound 1 µM
[4] = curve of first compound, second compound 3.16 µM
[5] = curve of first compound, second compound 10 µM
[6] = second compound 0.1 µM, first compound 0.01 µM
[7] = second compound 0.1 µM, first compound 0.0316 µM
[8] = second compound 0.1 µM, first compound 0.1 µM
[9] = second compound 0.316 µM, first compound 0.01 µM
[10] = second compound 0.316 µM, first compound 0.0316 µM
[11] = second compound 0.316 µM, first compound 0.1 µM
[12] = second compound 1 µM, first compound 0.01 µM
[13] = second compound 1 µM, first compound 0.0316 µM
[14] = second compound 1 µM, first compound 0.1 µM
[15] = second compound 3.16 µM, first compound 0.01 µM
[16] = second compound 3.16 µM, first compound 0.0316 µM
[17] = second compound 3.16 µM, first compound 0.1 µM
[18] = second compound 10 µM, first compound 0.01 µM
[19] = second compound 10 µM, first compound 0.0316 µM
[20] = second compound 10 µM, first compound 0.1 µM
[21] = second compound 0.1 µM, first compound 0.316 µM
[22] = second compound 0.1 µM, first compound 1 µM
[23] = second compound 0.1 µM, first compound 3.16 µM
[24] = second compound 0.1 µM, first compound 10 µM
[25] = second compound 0.316 µM, first compound 0.316 µM
[26] = second compound 0.316 µM, first compound 1 µM
[27] = second compound 0.316 µM, first compound 3.16 µM
[28] = second compound 0.316 µM, first compound 10 µM
[29] = second compound 1 µM, first compound 0.316 µM
[30] = second compound 1 µM, first compound 1 µM
[31] = second compound 1 µM, first compound 3.16 µM
[32] = second compound 1 µM, first compound 10 µM
[33] = second compound 3.16 µM, first compound 0.316 µM
[34] = second compound 3.16 µM, first compound 1 µM
[35] = second compound 3.16 µM, first compound 3.16 µM
[36] = second compound 3.16 µM, first compound 10 µM
[37] = second compound 10 µM, first compound 0.316 µM
[38] = second compound 10 µM, first compound 1 µM
[39] = second compound 10 µM, first compound 3.16 µM
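Further: spheroids exposed to agents for 7 days.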

SMILES: C=CC(=O)N1CCN(c2nc(=O)n(-c3c(C)ccnc3C(C)C)c3nc(-c4c(O)cccc4F)c(F)cc23)C(C)C1 (stereo not drawn)
- viability, T/C (compound 0.1 µM): 103% [middle of 17 runs]
- viability, T/C (compound 0.316 µM): 103% [middle of 17 runs]
- viability, T/C (compound 1 µM): 103% [middle of 17 runs]
- viability, T/C (compound 3.16 µM): 104% [middle of 17 runs]
- viability, T/C (compound 10 µM): 100% [middle of 17 runs]
- IC50 (compound alone, run of 08/19/2021): > 10 µM
- IC50 (compound alone, run of 08/26/2021): > 10 µM
- IC50 (compound alone, run of 09/02/2021): > 10 µM

SMILES: Cn1ncnc1[C@H]1c2n[nH]c(=O)c3cc(F)cc(c23)N[C@@H]1c1ccc(F)cc1 + CC1OCC2(CCN(c3cnc(Sc4ccnc(N)c4Cl)c(N)n3)CC2)C1N
- IC50 [1]: > 0.1 µM
- IC50 [2]: > 0.1 µM
- IC50 [3]: > 0.1 µM
- IC50 [4]: > 0.1 µM
- IC50 [5]: > 0.1 µM
- viability, T/C (second compound 0.1 µM, first compound 0.000316 µM): 103%
- viability, T/C (second compound 0.1 µM, first compound 0.001 µM): 95.2%
- viability, T/C (second compound 0.1 µM, first compound 0.00316 µM): 93.4%
- viability, T/C [6]: 91.6%
- viability, T/C [7]: 99.2%
- viability, T/C [8]: 90.3%
- viability, T/C (second compound 0.316 µM, first compound 0.000316 µM): 97.5%
- viability, T/C (second compound 0.316 µM, first compound 0.001 µM): 87.3%
- viability, T/C (second compound 0.316 µM, first compound 0.00316 µM): 87.8%
- viability, T/C [9]: 85.2%
- viability, T/C [10]: 92.5%
- viability, T/C [11]: 81%
- viability, T/C (second compound 1 µM, first compound 0.000316 µM): 88.4%
- viability, T/C (second compound 1 µM, first compound 0.001 µM): 89.5%
- viability, T/C (second compound 1 µM, first compound 0.00316 µM): 83.5%
- viability, T/C [12]: 86.3%
- viability, T/C [13]: 82.1%
- viability, T/C [14]: 80%
- viability, T/C (second compound 3.16 µM, first compound 0.000316 µM): 79.5%
- viability, T/C (second compound 3.16 µM, first compound 0.001 µM): 80.4%
- viability, T/C (second compound 3.16 µM, first compound 0.00316 µM): 81%
- viability, T/C [15]: 76.3%
- viability, T/C [16]: 75.5%
- viability, T/C [17]: 78.2%
- viability, T/C (second compound 10 µM, first compound 0.000316 µM): 70.9%
- viability, T/C (second compound 10 µM, first compound 0.001 µM): 72.7%
- viability, T/C (second compound 10 µM, first compound 0.00316 µM): 67.2%
- viability, T/C [18]: 63.9%
- viability, T/C [19]: 61.1%
- viability, T/C [20]: 61.2%

SMILES: O=C(c1cc(Cc2n[nH]c(=O)c3ccccc23)ccc1F)N1CCN(C(=O)C2CC2)CC1 + C=CC(=O)N1CCN(c2nc(OCC3CCCN3C)nc3c2CCN(c2cccc4cccc(C)c24)C3)CC1CC#N
- IC50 (curve of first compound, second compound 0.0316 µM): > 10 µM
- IC50 [1]: > 10 µM
- IC50 [2]: > 10 µM
- IC50 [3]: > 10 µM
- IC50 [4]: < 0.0316 µM
- viability, T/C (second compound 0.0316 µM, first compound 0.0316 µM): 104%
- viability, T/C (second compound 0.0316 µM, first compound 0.1 µM): 104%
- viability, T/C (second compound 0.0316 µM, first compound 0.316 µM): 99%
- viability, T/C (second compound 0.0316 µM, first compound 1 µM): 102%
- viability, T/C (second compound 0.0316 µM, first compound 3.16 µM): 99.4%
- viability, T/C (second compound 0.0316 µM, first compound 10 µM): 94.7%
- viability, T/C [7]: 108%
- viability, T/C [8]: 107%
- viability, T/C [21]: 101%
- viability, T/C [22]: 98.8%
- viability, T/C [23]: 104%
- viability, T/C [24]: 99.3%
- viability, T/C [10]: 101%
- viability, T/C [11]: 107%
- viability, T/C [25]: 97.5%
- viability, T/C [26]: 99.6%
- viability, T/C [27]: 101%
- viability, T/C [28]: 92.5%
- viability, T/C [13]: 100%
- viability, T/C [14]: 102%
- viability, T/C [29]: 97.9%
- viability, T/C [30]: 90.6%
- viability, T/C [31]: 103%
- viability, T/C [32]: 89%
- viability, T/C [16]: 34.1%
- viability, T/C [17]: 29%
- viability, T/C [33]: 21.5%
- viability, T/C [34]: 22.7%
- viability, T/C [35]: 28.9%
- viability, T/C [36]: 8.54%

SMILES: Cn1nccc1Nc1nccc(-c2cc3c(s2)C(C)(C)N(CCN2CCOCC2)C3=O)n1 + CNCc1ccccc1-c1csc(C(C)Nc2nc(C)nc3cc(OC)c(OC)cc23)c1
- IC50 [1]: 2.79 µM
- IC50 [2]: 1.18 µM
- IC50 [3]: 0.0777 µM
- IC50 [4]: < 0.0316 µM
- IC50 [5]: < 0.0316 µM
- viability, T/C [7]: 98%
- viability, T/C [8]: 85.6%
- viability, T/C [21]: 71.1%
- viability, T/C [22]: 61.9%
- viability, T/C [23]: 48.8%
- viability, T/C [24]: 37.2%
- viability, T/C [10]: 86.5%
- viability, T/C [11]: 80.8%
- viability, T/C [25]: 64.7%
- viability, T/C [26]: 53%
- viability, T/C [27]: 39.4%
- viability, T/C [28]: 33.2%
- viability, T/C [13]: 57.4%
- viability, T/C [14]: 53%
- viability, T/C [29]: 25.3%
- viability, T/C [30]: 25.9%
- viability, T/C [31]: 7.98%
- viability, T/C [32]: 3.51%
- viability, T/C [16]: 0.61%
- viability, T/C [17]: 0.29%
- viability, T/C [33]: 0.39%
- viability, T/C [34]: 0.2%
- viability, T/C [35]: 0.2%
- viability, T/C [36]: 0.21%
- viability, T/C [19]: 0.28%
- viability, T/C [20]: 0.25%
- viability, T/C [37]: 0.17%
- viability, T/C [38]: 0.26%
- viability, T/C [39]: 1.05%
- viability, T/C (second compound 10 µM, first compound 10 µM): 0.49%

SMILES: CC1COCCN1c1cc(-c2ccnn2C)c2ccnc(-c3ccn[nH]3)c2n1 (stereo not drawn) + COc1cc2nc(C)nc(NC(C)c3cc(N)cc(C(F)(F)F)c3)c2cc1OC1CCOC1
- IC50 [1]: > 3.16 µM
- IC50 [2]: > 3.16 µM
- IC50 [3]: > 3.16 µM
- IC50 [4]: 2.72 µM
- IC50 [5]: < 0.01 µM
- viability, T/C [6]: 101%
- viability, T/C [7]: 95%
- viability, T/C [8]: 86.5%
- viability, T/C [21]: 78.3%
- viability, T/C [22]: 71.1%
- viability, T/C [23]: 54.1%
- viability, T/C [9]: 98.7%
- viability, T/C [10]: 91.4%
- viability, T/C [11]: 76%
- viability, T/C [25]: 74.8%
- viability, T/C [26]: 67.9%
- viability, T/C [27]: 50.8%
- viability, T/C [12]: 101%
- viability, T/C [13]: 96.1%
- viability, T/C [14]: 78%
- viability, T/C [29]: 71.8%
- viability, T/C [30]: 65.6%
- viability, T/C [31]: 49.5%
- viability, T/C [15]: 87.5%
- viability, T/C [16]: 88.2%
- viability, T/C [17]: 71.7%
- viability, T/C [33]: 65.3%
- viability, T/C [34]: 58.1%
- viability, T/C [35]: 48.1%
- viability, T/C [18]: 15%
- viability, T/C [19]: 19.3%
- viability, T/C [20]: 17.1%
- viability, T/C [37]: 13.9%
- viability, T/C [38]: 18.1%
- viability, T/C [39]: 9.84%
